Results taken from patent US20090233975A1, “Hair resiliency/body improver and hair cosmetic” (priority 2005, published 2009).

Tested on: KAP5.1 gene
Experiment: KAP5.1 reporter assay (dual luciferase, pGL3-KAP5.1 in IORS cells)
Assay type: cell-based, human
Settings: overnight culture, negative control K-SFM(−) = 100
Protocol: A DNA fragment of about 15 kb containing KAP5.1 gene and KAP5.2 gene was amplified by PCR using an NM-F1 primer (SEQ ID NO. 6), in which the recognition sites of restriction endonuclease NotI and MluI were added to the 5′-terminal thereof, and an R2 primer (SEQ ID NO. 7), and using commercially available human genomic DNA (obtained from Promega) as the template (FIG. 1-A).
The amplified DNA fragment was double-digested with restriction endonucleases MluI and NheI, and a DNA fragment of about 4.9 kb was recovered following separation by agarose gel electrophoresis. This DNA fragment was cloned between the MluI and NheI sites of reporter vector pGL-3basic (obtained from Promega) having a gene that encodes firefly luciferase (FIG. 1-B). Reporter plasmid pGL-3-KAP5.1 containing the 5′ upstream region (SEQ ID NO. 8) of KAP5.1 was then constructed by subcloning [Step 1: subcloning of SacI/NcoI fragment (154 bp, FIG. 2) to pGL-3basic; Step 2: insertion of ScaI fragment (about 4.0 kbp, FIG. 2) into resulting plasmid] (FIG. 2).
8×10^5 immortalized outer root sheath (IORS) cells (obtained in accordance with Japanese Unexamined Patent Publication (Kokai) No. 2000-89) were seeded into a 75 cm^2 flask and cultured for 6 days under conditions of 37° C. and 5% CO2. Keratinocyte-SFM medium (Gibco) was used as the medium.
Day 1: Plasmid DNA Transfection (transient). The cultured IORS cells were dually transformed with the previously constructed reporter plasmid pGL3-KAP5.1 (firefly luciferase) and commercially available internal standard plasmid pRL-TK (renilla luciferase) in accordance with the manual provided with Effectene Transfection Reagent (Qiagen).
Day 2: The transformed cells were re-seeded into in a 24-well multiwell plate at 10 to 16×10^4 cells per well and cultured overnight under conditions of 37° C. and 5% CO2.
Day 3: The medium in each well was replaced with a basal medium in which each drug was dissolved followed by culturing overnight under conditions of 37° C. and 5% CO2.
Day 4: Assay. Luciferase activity was assayed for each well using the Dual-Luciferase Reporter Assay System (Promega) in accordance with the manual provided by the manufacturer. The AutoLumat LB953 (Berthold) was used for the luminometer.
An assay was carried out under the same conditions with the exception of not containing drug as a negative control [K-SFM(−)]. The effect of increasing gene expression are represented in the form of the rate of increase (ratio based on a value of 100 for the negative control).

Row | Compound | Rate of Increase (KAP5.1 gene expression, ratio based on a value of 100 for the negative control) (10 ppm drug) | Rate of Increase (KAP5.1 gene expression, ratio based on a value of 100 for the negative control) (100 ppm drug) | Rate of Increase (KAP5.1 gene expression, ratio based on a value of 100 for the negative control) (300 ppm drug)
1 | CC(=O)Nc1nc(C)cs1 [2-acetamido-4-methylthiazole] | 110 | 150 | 
2 | CC(=O)Nc1nccs1 [2-acetamidothiazole] | 130 | 180 | 
3 | Nc1nccs1 [2-aminothiazole] | 110 | 140 | 
4 | CC(=O)Nc1cc(C)on1 [3-acetamido-5-methylisoxazole] | 100 | 110 | 125
5 | Cc1cc(N)no1 [3-amino-5-methylisoxazole] | 120 | 140 | 160
